Legend:
Assay in all cases: biochemical
Conditions in all cases: read-out: % Inhibition (at 10mM)
TYK2 = TYK2 (Homo sapiens, UniProt P29597)
GRK2 = GRK2 (Homo sapiens, UniProt P25098)
Aurora_A = molecular target: T1, Aurora_A (Homo sapiens, UniProt O14965)
T1 construct: gene AURKA

MARK3 = MARK3 (Homo sapiens, UniProt P27448)
TNK1 = TNK1 (Homo sapiens, UniProt Q13470)
Tie2 = molecular target: T2, Tie2 (Homo sapiens, UniProt Q02763)
T2 construct: gene TEK

EphB1 = EphB1 (Homo sapiens, UniProt P54762)
Sequence of EphB1 (P54762 whole entry): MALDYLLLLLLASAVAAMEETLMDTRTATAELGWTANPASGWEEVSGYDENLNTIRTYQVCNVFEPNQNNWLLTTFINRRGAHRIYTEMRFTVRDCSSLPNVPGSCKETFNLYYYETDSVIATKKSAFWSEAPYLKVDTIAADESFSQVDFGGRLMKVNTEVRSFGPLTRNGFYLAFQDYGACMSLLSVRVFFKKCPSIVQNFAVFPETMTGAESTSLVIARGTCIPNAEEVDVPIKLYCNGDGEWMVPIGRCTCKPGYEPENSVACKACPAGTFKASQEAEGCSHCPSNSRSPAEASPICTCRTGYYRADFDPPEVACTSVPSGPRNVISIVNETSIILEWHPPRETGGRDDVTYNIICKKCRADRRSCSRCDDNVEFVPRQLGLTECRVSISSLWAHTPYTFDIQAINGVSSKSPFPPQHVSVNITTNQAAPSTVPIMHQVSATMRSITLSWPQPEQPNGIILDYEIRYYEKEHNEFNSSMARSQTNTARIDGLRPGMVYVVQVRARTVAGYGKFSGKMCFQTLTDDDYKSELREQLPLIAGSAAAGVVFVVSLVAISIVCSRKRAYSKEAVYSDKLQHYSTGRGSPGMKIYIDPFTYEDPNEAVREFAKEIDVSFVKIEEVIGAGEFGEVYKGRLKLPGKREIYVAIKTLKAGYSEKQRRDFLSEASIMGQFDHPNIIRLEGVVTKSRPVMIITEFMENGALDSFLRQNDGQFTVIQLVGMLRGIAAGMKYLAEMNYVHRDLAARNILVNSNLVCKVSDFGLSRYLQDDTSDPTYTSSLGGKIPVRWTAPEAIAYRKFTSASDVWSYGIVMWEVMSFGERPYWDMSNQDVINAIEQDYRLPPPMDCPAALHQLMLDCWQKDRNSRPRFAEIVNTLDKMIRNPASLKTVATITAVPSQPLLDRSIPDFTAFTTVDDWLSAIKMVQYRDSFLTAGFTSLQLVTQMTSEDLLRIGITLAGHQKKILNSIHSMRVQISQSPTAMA

PRKAA2_B1_G3 = molecular target: T3, PRKAA2_B1_G3 (Homo sapiens, UniProt P54646)
T3 construct: gene PRKAA2

Src_N1 = molecular target: T4, Src_N1 (Homo sapiens, UniProt P12931)
T4 construct: gene SRC; isoform N1
T4 sequence (P12931 whole entry, canonical isoform): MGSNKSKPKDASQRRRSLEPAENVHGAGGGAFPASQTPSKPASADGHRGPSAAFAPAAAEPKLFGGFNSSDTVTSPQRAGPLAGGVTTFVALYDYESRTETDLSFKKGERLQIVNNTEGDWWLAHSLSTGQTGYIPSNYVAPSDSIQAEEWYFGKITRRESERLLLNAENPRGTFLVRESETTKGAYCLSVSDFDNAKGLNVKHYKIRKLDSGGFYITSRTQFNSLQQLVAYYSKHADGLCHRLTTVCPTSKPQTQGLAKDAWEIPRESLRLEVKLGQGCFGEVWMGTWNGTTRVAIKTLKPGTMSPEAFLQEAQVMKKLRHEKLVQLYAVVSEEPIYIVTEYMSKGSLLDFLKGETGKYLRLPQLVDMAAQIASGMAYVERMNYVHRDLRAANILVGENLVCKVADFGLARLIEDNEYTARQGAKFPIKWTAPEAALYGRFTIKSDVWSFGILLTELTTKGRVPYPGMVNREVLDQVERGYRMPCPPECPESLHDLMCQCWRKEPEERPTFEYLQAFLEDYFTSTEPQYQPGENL

PKC_theta = molecular target: T5, PKC_theta (Homo sapiens, UniProt Q04759)
T5 construct: gene PRKCQ

MARK2 = MARK2 (Homo sapiens, UniProt Q7KZI7)
PrKX = PrKX (Homo sapiens, UniProt P51817)
Sequence of PrKX (P51817 whole entry): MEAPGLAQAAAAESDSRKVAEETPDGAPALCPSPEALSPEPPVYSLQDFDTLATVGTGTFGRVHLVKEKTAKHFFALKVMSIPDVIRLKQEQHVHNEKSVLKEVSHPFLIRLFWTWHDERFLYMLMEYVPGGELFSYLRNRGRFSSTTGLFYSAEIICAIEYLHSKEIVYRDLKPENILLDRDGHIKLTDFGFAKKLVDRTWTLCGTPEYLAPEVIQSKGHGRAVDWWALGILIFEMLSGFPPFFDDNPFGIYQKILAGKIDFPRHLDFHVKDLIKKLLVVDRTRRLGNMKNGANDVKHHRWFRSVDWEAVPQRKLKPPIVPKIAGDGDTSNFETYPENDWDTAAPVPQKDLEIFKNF

EphA8 = EphA8 (Homo sapiens, UniProt P29322)
NEK9 = NEK9 (Homo sapiens, UniProt Q8TD19)
p70S6K = molecular target: T6, p70S6K (Homo sapiens, UniProt P23443)
T6 construct: gene RPS6KB1

p70S6Kb = molecular target: T7, p70S6Kb (Homo sapiens, UniProt Q9UBS0)
T7 construct: gene RPS6KB2

HIPK3 = HIPK3 (Homo sapiens, UniProt Q9H422)
PCTK2 = molecular target: T8, PCTK2 (Homo sapiens, UniProt Q00537)
T8 construct: gene CDK17

CK1_alpha1 = molecular target: T9, CK1_alpha1 (Homo sapiens, UniProt P48729)
T9 construct: gene CSNK1A1

BrSK1 = BrSK1 (Homo sapiens, UniProt Q8TDC3)
Sequence of BrSK1 (Q8TDC3 whole entry): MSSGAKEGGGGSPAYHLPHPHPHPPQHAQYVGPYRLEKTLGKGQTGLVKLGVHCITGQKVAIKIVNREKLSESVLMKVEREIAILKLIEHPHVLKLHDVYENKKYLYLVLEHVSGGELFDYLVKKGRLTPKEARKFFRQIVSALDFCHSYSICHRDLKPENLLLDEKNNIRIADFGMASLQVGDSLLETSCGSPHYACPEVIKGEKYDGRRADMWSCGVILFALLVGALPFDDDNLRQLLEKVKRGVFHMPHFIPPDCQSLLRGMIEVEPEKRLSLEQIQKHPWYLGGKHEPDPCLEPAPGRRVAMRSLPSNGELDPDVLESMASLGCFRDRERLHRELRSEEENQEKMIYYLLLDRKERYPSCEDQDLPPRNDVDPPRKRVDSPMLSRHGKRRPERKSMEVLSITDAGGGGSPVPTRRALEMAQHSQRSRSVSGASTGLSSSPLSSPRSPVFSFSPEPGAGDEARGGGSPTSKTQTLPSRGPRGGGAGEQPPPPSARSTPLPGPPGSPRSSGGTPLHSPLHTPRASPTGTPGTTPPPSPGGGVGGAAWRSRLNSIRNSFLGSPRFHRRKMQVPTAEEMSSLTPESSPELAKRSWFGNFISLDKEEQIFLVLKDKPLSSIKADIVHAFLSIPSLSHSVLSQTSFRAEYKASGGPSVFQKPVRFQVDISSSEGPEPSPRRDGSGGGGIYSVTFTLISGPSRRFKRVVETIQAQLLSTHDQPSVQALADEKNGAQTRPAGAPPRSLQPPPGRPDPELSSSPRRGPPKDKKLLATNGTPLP

TXK = TXK (Homo sapiens, UniProt P42681)
PAK6 = PAK6 (Homo sapiens, UniProt Q9NQU5)
ErbB4 = ErbB4 (Homo sapiens, UniProt Q15303)
GSK3_alpha = molecular target: T10, GSK3_alpha (Homo sapiens, UniProt P49840)
T10 construct: gene GSK3A

HIPK1 = HIPK1 (Homo sapiens, UniProt Q86Z02)
NEK4 = NEK4 (Homo sapiens, UniProt P51957)
Sequence of NEK4 (P51957 whole entry): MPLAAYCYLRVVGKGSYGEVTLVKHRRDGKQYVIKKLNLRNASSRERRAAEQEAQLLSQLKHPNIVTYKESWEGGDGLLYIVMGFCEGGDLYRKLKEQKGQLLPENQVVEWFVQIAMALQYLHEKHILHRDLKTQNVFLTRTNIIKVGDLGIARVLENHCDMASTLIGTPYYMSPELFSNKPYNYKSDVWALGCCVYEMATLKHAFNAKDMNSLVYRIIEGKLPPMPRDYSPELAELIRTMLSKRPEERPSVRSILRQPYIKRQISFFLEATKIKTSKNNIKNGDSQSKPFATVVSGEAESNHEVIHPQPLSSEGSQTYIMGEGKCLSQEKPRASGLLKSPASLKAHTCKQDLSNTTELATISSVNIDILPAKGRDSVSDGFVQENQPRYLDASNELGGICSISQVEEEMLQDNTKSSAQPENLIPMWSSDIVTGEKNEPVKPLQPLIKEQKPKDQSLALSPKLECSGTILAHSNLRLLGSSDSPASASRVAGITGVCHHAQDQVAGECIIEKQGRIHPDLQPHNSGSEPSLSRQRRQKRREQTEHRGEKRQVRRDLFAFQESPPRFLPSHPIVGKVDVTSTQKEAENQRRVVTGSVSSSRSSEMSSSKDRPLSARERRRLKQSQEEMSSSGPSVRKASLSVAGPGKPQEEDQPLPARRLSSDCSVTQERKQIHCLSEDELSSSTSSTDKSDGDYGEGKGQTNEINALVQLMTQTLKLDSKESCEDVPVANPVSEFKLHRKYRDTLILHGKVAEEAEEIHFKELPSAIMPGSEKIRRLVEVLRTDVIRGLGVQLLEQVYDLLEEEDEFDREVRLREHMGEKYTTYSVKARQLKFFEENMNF

PKD1 = molecular target: T11, PKD1 (Homo sapiens, UniProt Q15139)
T11 construct: gene PRKD1

MAPKAPK2 = MAPKAPK2 (Homo sapiens, UniProt P49137)
ErbB2 = ErbB2 (Homo sapiens, UniProt P04626)
Sequence of ErbB2 (P04626 whole entry): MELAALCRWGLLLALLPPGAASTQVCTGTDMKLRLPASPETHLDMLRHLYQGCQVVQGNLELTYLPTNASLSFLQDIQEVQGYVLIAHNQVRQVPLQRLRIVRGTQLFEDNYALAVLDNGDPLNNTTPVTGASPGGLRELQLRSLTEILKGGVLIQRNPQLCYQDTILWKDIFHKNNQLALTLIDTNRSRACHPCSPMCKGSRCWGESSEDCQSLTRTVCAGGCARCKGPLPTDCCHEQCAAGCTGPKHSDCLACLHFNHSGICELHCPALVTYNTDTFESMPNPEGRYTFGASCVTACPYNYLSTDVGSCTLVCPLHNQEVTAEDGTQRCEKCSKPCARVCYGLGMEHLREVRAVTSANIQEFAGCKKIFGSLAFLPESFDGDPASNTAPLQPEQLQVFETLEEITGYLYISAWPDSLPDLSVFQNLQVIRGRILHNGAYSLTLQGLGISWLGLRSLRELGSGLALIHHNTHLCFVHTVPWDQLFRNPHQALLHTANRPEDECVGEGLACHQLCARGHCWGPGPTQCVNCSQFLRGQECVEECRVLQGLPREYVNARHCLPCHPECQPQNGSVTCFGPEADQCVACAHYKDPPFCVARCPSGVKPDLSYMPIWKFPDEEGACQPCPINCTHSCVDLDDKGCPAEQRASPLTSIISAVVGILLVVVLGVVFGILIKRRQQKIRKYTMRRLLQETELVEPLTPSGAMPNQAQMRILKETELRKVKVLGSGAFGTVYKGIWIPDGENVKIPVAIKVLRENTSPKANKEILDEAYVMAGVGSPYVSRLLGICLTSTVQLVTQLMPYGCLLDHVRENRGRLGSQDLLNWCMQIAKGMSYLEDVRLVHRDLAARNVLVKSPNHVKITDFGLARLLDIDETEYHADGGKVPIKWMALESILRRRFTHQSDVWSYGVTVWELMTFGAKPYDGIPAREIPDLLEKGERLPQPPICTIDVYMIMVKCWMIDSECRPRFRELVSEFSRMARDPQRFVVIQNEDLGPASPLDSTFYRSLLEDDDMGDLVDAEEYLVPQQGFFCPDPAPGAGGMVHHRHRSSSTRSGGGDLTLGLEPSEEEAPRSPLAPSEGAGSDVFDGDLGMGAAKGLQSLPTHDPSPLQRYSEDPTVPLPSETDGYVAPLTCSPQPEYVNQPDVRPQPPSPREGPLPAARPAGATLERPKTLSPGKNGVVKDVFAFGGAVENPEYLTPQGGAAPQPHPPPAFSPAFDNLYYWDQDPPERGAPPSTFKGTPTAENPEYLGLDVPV

ITK = ITK (Homo sapiens, UniProt Q08881)
PIM3 = PIM3 (Homo sapiens, UniProt Q86V86)
GRK5 = GRK5 (Homo sapiens, UniProt P34947)
PIM2 = PIM2 (Homo sapiens, UniProt Q9P1W9)
MRCK_beta = molecular target: T12, MRCK_beta (Homo sapiens, UniProt Q9Y5S2)
T12 construct: gene CDC42BPB

CK1_epsilon1 = molecular target: T13, CK1_epsilon1 (Homo sapiens, UniProt P49674)
T13 construct: gene CSNK1E; epsilon 1

DCAMKL1 = molecular target: T14, DCAMKL1 (Homo sapiens, UniProt O15075)
T14 construct: gene DCLK1

Fes = Fes (Homo sapiens, UniProt P07332)

inhibition (TYK2): 4.5%
inhibition (GRK2): 0%
inhibition (Aurora_A): 17.5%
inhibition (MARK3): 6.5%
inhibition (TNK1): 12%
inhibition (Tie2): -6%
inhibition (EphB1): -6%
inhibition (PRKAA2_B1_G3): 4%
inhibition (Src_N1): 23%
inhibition (PKC_theta): 12%
inhibition (MARK2): 5.5%
inhibition (PrKX): 6.5%
inhibition (EphA8): 8%
inhibition (p70S6K): 7.5%
inhibition (p70S6Kb): 2.5%
inhibition (HIPK3): 0%
inhibition (PCTK2): 0.5%
inhibition (CK1_alpha1): 5.5%
inhibition (BrSK1): 5%
inhibition (TXK): 15%
inhibition (PAK6): 5.5%
inhibition (ErbB4): 98.5%
inhibition (GSK3_alpha): 10%
inhibition (HIPK1): 4.5%
inhibition (NEK4): 8.5%
inhibition (PKD1): 76%
inhibition (MAPKAPK2): 7.5%
inhibition (ErbB2): 99%
inhibition (ITK): 1%
inhibition (PIM3): 1%
inhibition (GRK5): -4.5%
inhibition (PIM2): 5.5%
inhibition (MRCK_beta): 1.5%
inhibition (CK1_epsilon1): 10.5%
inhibition (DCAMKL1): -2.5%
inhibition (Fes): 15.5%
SMILES: CC(C)(O)CC(=O)NCCn1ccc2ncnc(Nc3ccc(Oc4cccc(C(F)(F)F)c4)c(Cl)c3)c21 [TAK-285]
inhibition (NEK9): 0%

Source: article PMC6978363, “Chaperone mediated detection of small molecule target binding in cells” (Nature Communications, 2020)
